Measured values taken from patent US12252524B2, “GIP/GLP1 co-agonist compounds” (Eli Lilly and Company, priority 2018, dated 2025).
Numbered stars: 1 amine (or outer) side, 2 acyl side, 3 side chain; on linkers, the order of the positions; unused ones are H or OH. Square brackets hold non-standard residues; d marks the D form. Side chains are listed from the residue outwards. Peptide text beside a SMILES is read from it. * marks the point of attachment. C20 diacid = O=C(O)CCCCCCCCCCCCCCCCCCC(=O)*; γGlu = O=C(O)[C@H](CCC(=O)[*:2])N[*:1]; AEEA = NCCOCCOCC(=O)O; Aib = CC(C)(N)C(=O)O

Experiments:
[1] = biological target: T1, gastric inhibitory peptide receptor (GIPR) (Homo sapiens, UniProt P48546); assay: cAMP pharmacological functional assay in presence of casein, hGIPR; assay type: cell-based; conditions: HEK293 cells expressing hGIPR, 0.1% Casein, geometric mean; read-out: hGIPR cAMP Rel EC50 nM (SEM, n)
T1 sequence (P48546 22-466): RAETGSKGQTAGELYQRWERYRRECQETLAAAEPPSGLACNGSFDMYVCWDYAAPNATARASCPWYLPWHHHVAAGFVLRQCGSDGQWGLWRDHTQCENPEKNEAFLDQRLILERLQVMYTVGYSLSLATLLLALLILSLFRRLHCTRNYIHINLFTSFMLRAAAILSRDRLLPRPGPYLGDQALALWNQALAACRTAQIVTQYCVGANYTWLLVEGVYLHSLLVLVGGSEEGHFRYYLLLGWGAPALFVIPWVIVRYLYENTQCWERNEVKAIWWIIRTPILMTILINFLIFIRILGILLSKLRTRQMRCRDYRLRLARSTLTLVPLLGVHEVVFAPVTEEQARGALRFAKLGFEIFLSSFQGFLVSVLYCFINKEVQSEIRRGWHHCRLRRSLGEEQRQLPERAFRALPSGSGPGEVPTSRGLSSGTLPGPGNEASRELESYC

human Gcg receptor = biological target: T2, human Gcg receptor (Homo sapiens, UniProt P47871); assay: [125I]-Glucagon binding (SPA), human Gcg receptor; conditions: read-out: hGLcgR Ki, nM (SEM, n)
T2 construct: expressed in transfected cells; crude membranes
Outline: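 Cell pellets were lysed in hypotonic Tris buffer, pH 7.5, homogenized, and spun at low then high speed to give crude membranes. Ki was derived from the fitted IC50.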

human GIP receptor = biological target: T3, human GIP receptor (Homo sapiens, UniProt P48546); assay: [125I]-GIP binding (SPA), human GIP receptor; conditions: read-out: hGIPR Ki, nM (SEM, n)
T3 construct: expressed in transfected cells; crude membranes
T3 sequence (P48546 22-466): T1 sequence (P48546 22-466)

human GLP-1R = human GLP-1R (Homo sapiens, UniProt P43220); assay: [125I]-GLP-1 binding (SPA), human GLP-1 receptor; set-up: expressed in transfected cells; crude membranes; conditions: read-out: hGLP1R Ki, (nM) (SEM, n)
Outline: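 Frozen cell pellets are lysed on ice in hypotonic Tris buffer, pH 7.5, homogenized, and centrifuged to a membrane pellet resuspended at about 1 to 3 mg/mL. Binding is then measured in HEPES-based buffer at pH 7.4, and curves are fitted to give IC50 and Ki.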

[2] = biological target: human GLP-1 receptor (GLP-1R) (Homo sapiens, UniProt P43220); assay: cAMP pharmacological functional assay in presence of casein, hGLP-1R; assay type: cell-based; conditions: HEK293 cells expressing hGLP-1R, 0.1% Casein, geometric mean; read-out: hGLP1R cAMP Rel EC50 nM (SEM, n)
Chain of human GLP-1 receptor (GLP-1R) (P43220 24-463): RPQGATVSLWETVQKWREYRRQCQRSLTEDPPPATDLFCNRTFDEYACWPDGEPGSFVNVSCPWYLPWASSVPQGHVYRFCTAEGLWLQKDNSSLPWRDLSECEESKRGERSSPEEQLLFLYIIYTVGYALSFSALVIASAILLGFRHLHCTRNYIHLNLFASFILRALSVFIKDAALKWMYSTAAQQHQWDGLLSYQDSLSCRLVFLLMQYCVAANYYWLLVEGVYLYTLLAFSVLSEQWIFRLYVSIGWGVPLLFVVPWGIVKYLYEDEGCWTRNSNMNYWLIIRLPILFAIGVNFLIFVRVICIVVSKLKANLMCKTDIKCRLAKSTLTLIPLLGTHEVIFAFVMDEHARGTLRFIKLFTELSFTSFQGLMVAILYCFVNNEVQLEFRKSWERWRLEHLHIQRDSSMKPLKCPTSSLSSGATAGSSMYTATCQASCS

Chain of human GLP-1R (P43220 24-463): as above
T2 sequence (P47871 26-477): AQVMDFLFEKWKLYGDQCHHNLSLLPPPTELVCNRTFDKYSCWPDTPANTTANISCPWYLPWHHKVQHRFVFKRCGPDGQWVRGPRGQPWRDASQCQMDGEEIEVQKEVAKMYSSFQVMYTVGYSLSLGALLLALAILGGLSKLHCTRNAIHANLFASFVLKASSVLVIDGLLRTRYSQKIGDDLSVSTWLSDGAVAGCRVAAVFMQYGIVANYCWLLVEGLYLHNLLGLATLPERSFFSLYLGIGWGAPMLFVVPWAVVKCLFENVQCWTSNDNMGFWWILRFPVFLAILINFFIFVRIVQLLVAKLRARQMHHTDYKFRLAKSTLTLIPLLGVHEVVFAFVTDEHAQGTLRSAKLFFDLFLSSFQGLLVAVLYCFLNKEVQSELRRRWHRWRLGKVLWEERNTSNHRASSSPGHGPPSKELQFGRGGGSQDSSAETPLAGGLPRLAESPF

Structure (SMILES): CC[C@H](C)[C@H](NC(=O)[C@H](CCCCN)NC(=O)[C@H](CC(=O)O)NC(=O)[C@H](CC(C)C)NC(=O)[C@H](CC(C)C)NC(=O)[C@@H](NC(=O)[C@H](CO)NC(=O)[C@H](Cc1ccc(O)cc1)NC(=O)[C@H](CC(=O)O)NC(=O)[C@H](CO)NC(=O)[C@@H](NC(=O)[C@H](Cc1ccccc1)NC(=O)[C@@H](NC(=O)CNC(=O)[C@H](CCC(=O)O)NC(=O)C(C)(C)NC(=O)[C@@H](N)Cc1ccc(O)cc1)[C@@H](C)O)[C@@H](C)O)[C@@H](C)CC)C(=O)N[C@@H](C)C(=O)N[C@@H](CCC(N)=O)C(=O)NC(C)(C)C(=O)N[C@@H](C)C(=O)N[C@@H](Cc1ccccc1)C(=O)N[C@H](C(=O)N[C@@H](CCC(=O)O)C(=O)N[C@@H](Cc1ccc(O)cc1)C(=O)N[C@@H](CC(C)C)C(=O)N[C@@H](CCCCNC(=O)COCCOCCNC(=O)COCCOCCNC(=O)CC[C@H](NC(=O)CCCCCCCCCCCCCCCCCCC(=O)O)C(=O)O)C(=O)N[C@@H](CCC(=O)O)C(=O)NCC(=O)NCC(=O)N1CCC[C@H]1C(=O)N[C@@H](CO)C(=O)N[C@@H](CO)C(=O)NCC(=O)N[C@@H](C)C(=O)N1CCC[C@H]1C(=O)N1CCC[C@H]1C(=O)N1CCC[C@H]1C(=O)N[C@@H](CO)C(N)=O)[C@@H](C)CC [Example 36] (H-Y[Aib]EGTFTSDYSILLDKIAQ[Aib]AFIEYLK([AEEA-AEEA-γGlu-C20 diacid])EGGPSSGAPPPS-NH2)
- EC50 [1]: 0.309 nM
- Ki (human Gcg receptor): 413 nM
- Ki (human GIP receptor): 0.141 nM
- Ki (human GLP-1R): 16.4 nM
- EC50 [2]: 2.29 nM

Structure (SMILES): CC[C@H](C)[C@H](NC(=O)[C@H](CCCCN)NC(=O)[C@H](CC(=O)O)NC(=O)[C@H](CC(C)C)NC(=O)[C@H](CC(C)C)NC(=O)[C@@H](NC(=O)[C@H](CO)NC(=O)[C@H](Cc1ccc(O)cc1)NC(=O)[C@H](CC(=O)O)NC(=O)[C@H](CO)NC(=O)[C@@H](NC(=O)[C@H](Cc1ccccc1)NC(=O)[C@@H](NC(=O)CNC(=O)[C@H](CCC(=O)O)NC(=O)C(C)(C)NC(=O)[C@@H](N)Cc1ccc(O)cc1)[C@@H](C)O)[C@@H](C)O)[C@@H](C)CC)C(=O)N[C@@H](C)C(=O)N[C@@H](CCC(N)=O)C(=O)NC(C)(C)C(=O)N[C@@H](C)C(=O)N[C@@H](Cc1ccccc1)C(=O)N[C@H](C(=O)N[C@@H](CCC(=O)O)C(=O)N[C@@H](Cc1ccc(O)cc1)C(=O)N[C@@H](CC(C)C)C(=O)N[C@H](C(=O)N[C@@H](CCCCNC(=O)COCCOCCNC(=O)COCCOCCNC(=O)CC[C@H](NC(=O)CCCCCCCCCCCCCCCCCCC(=O)O)C(=O)O)C(=O)NCC(=O)NCC(=O)N1CCC[C@H]1C(=O)N[C@@H](CO)C(=O)N[C@@H](CO)C(=O)NCC(=O)N[C@@H](C)C(=O)N1CCC[C@H]1C(=O)N1CCC[C@H]1C(=O)N1CCC[C@H]1C(=O)N[C@@H](CO)C(N)=O)[C@@H](C)CC)[C@@H](C)CC [Example 37] (H-Y[Aib]EGTFTSDYSILLDKIAQ[Aib]AFIEYLIK([AEEA-AEEA-γGlu-C20 diacid])GGPSSGAPPPS-NH2)
- EC50 [1]: 0.269 nM
- Ki (human Gcg receptor): 255 nM
- Ki (human GIP receptor): 0.0523 nM
- Ki (human GLP-1R): 3.84 nM
- EC50 [2]: 1.15 nM

Structure (SMILES): CC[C@H](C)[C@H](NC(=O)[C@H](CCCCN)NC(=O)[C@H](CC(=O)O)NC(=O)[C@H](CC(C)C)NC(=O)[C@H](CC(C)C)NC(=O)[C@@H](NC(=O)[C@H](CO)NC(=O)[C@H](Cc1ccc(O)cc1)NC(=O)[C@H](CC(=O)O)NC(=O)[C@H](CO)NC(=O)[C@@H](NC(=O)[C@H](Cc1ccccc1)NC(=O)[C@@H](NC(=O)CNC(=O)[C@H](CCC(=O)O)NC(=O)C(C)(C)NC(=O)[C@@H](N)Cc1ccc(O)cc1)[C@@H](C)O)[C@@H](C)O)[C@@H](C)CC)C(=O)N[C@@H](C)C(=O)N[C@@H](CCC(N)=O)C(=O)NC(C)(C)C(=O)N[C@@H](C)C(=O)N[C@@H](Cc1ccccc1)C(=O)N[C@H](C(=O)N[C@@H](CCC(=O)O)C(=O)N[C@@H](Cc1ccc(O)cc1)C(=O)N[C@@H](CC(C)C)C(=O)N[C@H](C(=O)N[C@@H](CCC(=O)O)C(=O)N[C@@H](CCCCNC(=O)COCCOCCNC(=O)COCCOCCNC(=O)CC[C@H](NC(=O)CCCCCCCCCCCCCCCCCCC(=O)O)C(=O)O)C(=O)NCC(=O)N1CCC[C@H]1C(=O)N[C@@H](CO)C(=O)N[C@@H](CO)C(=O)NCC(=O)N[C@@H](C)C(=O)N1CCC[C@H]1C(=O)N1CCC[C@H]1C(=O)N1CCC[C@H]1C(=O)N[C@@H](CO)C(N)=O)[C@@H](C)CC)[C@@H](C)CC [Example 38] (H-Y[Aib]EGTFTSDYSILLDKIAQ[Aib]AFIEYLIEK([AEEA-AEEA-γGlu-C20 diacid])GPSSGAPPPS-NH2)
- EC50 [1]: 0.147 nM
- Ki (human Gcg receptor): > 974 nM
- Ki (human GIP receptor): 0.104 nM
- Ki (human GLP-1R): 31.3 nM
- EC50 [2]: 2.82 nM

Structure (SMILES): CC[C@H](C)[C@H](NC(=O)[C@H](CCCCN)NC(=O)[C@H](CC(=O)O)NC(=O)[C@H](CC(C)C)NC(=O)[C@H](CC(C)C)NC(=O)[C@@H](NC(=O)[C@H](CO)NC(=O)[C@H](Cc1ccc(O)cc1)NC(=O)[C@H](CC(=O)O)NC(=O)[C@H](CO)NC(=O)[C@@H](NC(=O)[C@H](Cc1ccccc1)NC(=O)[C@@H](NC(=O)CNC(=O)[C@H](CCC(=O)O)NC(=O)C(C)(C)NC(=O)[C@@H](N)Cc1ccc(O)cc1)[C@@H](C)O)[C@@H](C)O)[C@@H](C)CC)C(=O)N[C@@H](C)C(=O)N[C@@H](CCC(N)=O)C(=O)NC(C)(C)C(=O)N[C@@H](C)C(=O)N[C@@H](Cc1ccccc1)C(=O)N[C@H](C(=O)N[C@@H](CCC(=O)O)C(=O)N[C@@H](Cc1ccc(O)cc1)C(=O)N[C@@H](CC(C)C)C(=O)N[C@H](C(=O)N[C@@H](CCC(=O)O)C(=O)NCC(=O)N[C@@H](CCCCNC(=O)COCCOCCNC(=O)COCCOCCNC(=O)CC[C@H](NC(=O)CCCCCCCCCCCCCCCCCCC(=O)O)C(=O)O)C(=O)N1CCC[C@H]1C(=O)N[C@@H](CO)C(=O)N[C@@H](CO)C(=O)NCC(=O)N[C@@H](C)C(=O)N1CCC[C@H]1C(=O)N1CCC[C@H]1C(=O)N1CCC[C@H]1C(=O)N[C@@H](CO)C(N)=O)[C@@H](C)CC)[C@@H](C)CC [Example 39] (H-Y[Aib]EGTFTSDYSILLDKIAQ[Aib]AFIEYLIEGK([AEEA-AEEA-γGlu-C20 diacid])PSSGAPPPS-NH2)
- EC50 [1]: 0.133 nM
- Ki (human Gcg receptor): 161 nM
- Ki (human GIP receptor): 0.0499 nM
- Ki (human GLP-1R): 16.8 nM
- EC50 [2]: 1.92 nM

Structure (SMILES): CC[C@H](C)[C@H](NC(=O)[C@H](CCCCN)NC(=O)[C@H](CC(=O)O)NC(=O)[C@H](CC(C)C)NC(=O)[C@H](CC(C)C)NC(=O)[C@@H](NC(=O)[C@H](CO)NC(=O)[C@H](Cc1ccc(O)cc1)NC(=O)[C@H](CC(=O)O)NC(=O)[C@H](CO)NC(=O)[C@@H](NC(=O)[C@H](Cc1ccccc1)NC(=O)[C@@H](NC(=O)CNC(=O)[C@H](CCC(=O)O)NC(=O)C(C)(C)NC(=O)[C@@H](N)Cc1ccc(O)cc1)[C@@H](C)O)[C@@H](C)O)[C@@H](C)CC)C(=O)N[C@@H](C)C(=O)N[C@@H](CCC(N)=O)C(=O)NC(C)(C)C(=O)N[C@@H](C)C(=O)N[C@@H](Cc1ccccc1)C(=O)N[C@H](C(=O)N[C@@H](CCC(=O)O)C(=O)N[C@@H](Cc1ccc(O)cc1)C(=O)N[C@@H](CC(C)C)C(=O)N[C@H](C(=O)N[C@@H](CCC(=O)O)C(=O)NCC(=O)NCC(=O)N[C@@H](CCCCNC(=O)COCCOCCNC(=O)COCCOCCNC(=O)CC[C@H](NC(=O)CCCCCCCCCCCCCCCCCCC(=O)O)C(=O)O)C(=O)N[C@@H](CO)C(=O)N[C@@H](CO)C(=O)NCC(=O)N[C@@H](C)C(=O)N1CCC[C@H]1C(=O)N1CCC[C@H]1C(=O)N1CCC[C@H]1C(=O)N[C@@H](CO)C(N)=O)[C@@H](C)CC)[C@@H](C)CC [Example 40] (H-Y[Aib]EGTFTSDYSILLDKIAQ[Aib]AFIEYLIEGGK([AEEA-AEEA-γGlu-C20 diacid])SSGAPPPS-NH2)
- EC50 [1]: 0.136 nM
- Ki (human Gcg receptor): 150 nM
- Ki (human GIP receptor): 0.0345 nM
- Ki (human GLP-1R): 7.56 nM
- EC50 [2]: 0.746 nM
